Like-named read-outs stand apart in the source and are kept apart here.
Legend:
[1] = molecular target: T1, PPARγ (Mus musculus, UniProt P37238); test: GAL4-PPARγ reporter (luciferase) activation assay in HepG2 cells; settings: for fold induction at 100 µM: HepG2, 48 h, read-out: Relative activity (control = 1) PPARγ; for PPARγ-activating effect (in words): conclusion from Table 1
T1 sequence (P37238 202-505): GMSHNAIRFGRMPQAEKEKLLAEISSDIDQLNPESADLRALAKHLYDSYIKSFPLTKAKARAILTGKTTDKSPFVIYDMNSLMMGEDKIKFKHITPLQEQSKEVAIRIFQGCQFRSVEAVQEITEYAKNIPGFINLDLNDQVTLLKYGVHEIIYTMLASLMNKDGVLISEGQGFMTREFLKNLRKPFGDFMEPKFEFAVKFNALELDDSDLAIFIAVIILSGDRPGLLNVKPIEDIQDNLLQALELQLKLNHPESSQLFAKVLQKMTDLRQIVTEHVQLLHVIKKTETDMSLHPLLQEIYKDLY
Description: To identify a compound having a PPARδ and PPARγ ligand effect, fused gene expression vectors of the DNA-binding domain (GAL4-DNA bindgn domain, GAL4-DBD) of a yeast transcription activated protein and the PPAR ligand binding domains (LBDs) were constructed. Three activation vectors thus constructed were named GAL-PPARα, GAL-PPARδ and GAL-PPARγ respectively.
i) Ligand binding domains (PPAR-LBDs) of mouse peroxisome-proliferator-activated receptors (mPPARα, mPPARδ and mPPARγ) were each amplified by PCR (polymerase chain reaction). As a template employed in the amplification, total RNA was prepared from a fat tissue around mouse epididymis with the use of a total RNA extracting reagent Isogen (manufactured by Nippon Gene) in accordance with the attached manufacturer's instruction. […] PCR was performed by using GeneAmp PCR System Model 9600.
ii) Into one side of each primer thus synthesized, a recognition sequence of a restriction enzyme SmaI or BamHI had been preliminarily inserted so that the primer could be cleaved with the restriction enzyme. After the amplification, the PCR fragment was ligated with pGBT9 DNA-Binding Domain Vector (5.5 kb, having the GAL4-DBD domain and an ampicillin resistance gene Amp^R sequence, manufactured by Clontech) and the vector thus formed was named pGBT9-PPAR-LBD.
iii) A fused gene domain (GAL4-DBD+PPAR-LBD) wherein GAL4-DBD contained in pGBT9-PPAR-LBD was legated to PPARLBD was excised by using HindIII/SalI and transferred into the multiple cloning site (MCS) of an expression vector pZeoSV (3.5 kb, having zeocin resistance gene Zeo^R sequence, manufactured by Clontech) by using HindIII/Xhol. The thus obtained chimeric expression vectors of GAL4-DBD ad PPAR-LBD were named respectively GAL-PPARα, GAL-PPARδ and GAL-PPARγ.
i) DNA sequences were synthesized by using a DNA synthesizer (Beckman DNA Synthesizer oligo1000M, manufactured by Beckman) by repeating the GAL4-DBD binding sequence (GAL4 responsive element, RE or UASG) once (RE×1) or thrice (RE×3). Then appropriate restriction enzyme cites were introduced into both ends and these sequences were ligated together to give a 4-repetition sequence fragment (RE×4). Further, an 8-repetition sequence fragment (RE×8) was formed by using the same.
ii) A DNA sequence wherein TATA box was ligated to the above GAL4 responsive sequence (RE×8) was formed by PCR and then inserted into the 5'-side upstream of the luciferase gene sequence (RE-LUC) in a vector for luciferae assay system (Pica Gene Vector-2, (PGV-B2), Toyo Ink Mfg.). […] RE-LUC containing RE×8 was transferred into cells together with GAL-PPARγ. Then CS-045 (troglitazone), i.e., the ligand of PPARγ was added.
By using the activation vectors and reporter vectors constructed in the above (1) and (2), the PPAR activation effect of a compound was measured by a method involving the following three steps: i) Cotransfection of construction into a host; ii) treatment of cells by adding the compound; and iii) assay of the reporter gene expression level.
HepG2 cells (American Type Culture Collection, Maryland, USA) was inoculated into a collagen type IV treated 96-well plate (manufactured by Iwaki) at a cell density of 1×10^4 /well and incubated for 2 days in the presence of Dulbecco's modified Eagle medium containing 10% of fetal calf serum (FCS) (200 μl/well, FCS-DMEM (GIBCO BRL)). Next, the cells were washed with 100 μl/well of a cell incubation medium (OPTI-MEM I Reduced Serum Medium, manufactured by GIBCO BRL) maintained at 37° C.

[2] = system: PPARα; settings: literature report; cited from earlier work
[3] = molecular target: T2, PPARα (Mus musculus, UniProt P23204); test: GAL4-PPARα reporter (luciferase) activation assay in HepG2 cells; type: cell-based; settings: read-out: Relative activity (control = 1) PPARα
T2 construct: mPPARα (Gly^165 -Tyr^467); expressed in transfected cells; host or cells: HepG2
T2 sequence (P23204 165-468 limits assumed): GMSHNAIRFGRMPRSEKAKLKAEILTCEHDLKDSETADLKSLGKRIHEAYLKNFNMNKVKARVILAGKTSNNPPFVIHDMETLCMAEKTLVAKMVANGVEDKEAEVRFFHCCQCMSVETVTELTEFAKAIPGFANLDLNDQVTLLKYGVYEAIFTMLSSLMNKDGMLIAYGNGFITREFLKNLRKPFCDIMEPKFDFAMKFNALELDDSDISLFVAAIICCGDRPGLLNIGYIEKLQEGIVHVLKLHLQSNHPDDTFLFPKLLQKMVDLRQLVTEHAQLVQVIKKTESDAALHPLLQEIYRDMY

[4] = molecular target: T3, PPARδ (Mus musculus, UniProt P35396); test: GAL4-PPARδ reporter (luciferase) activation assay in HepG2 cells; type: cell-based; settings: for fold induction at 100 µM: read-out: Relative activity (control = 1) PPARδ; for PPARδ-activating effect (in words): conclusion from Table 1
T3 construct: mPPARδ (Met^137 -Tyr^439); expressed in transfected cells; host or cells: HepG2
T3 sequence (P35396 137-440 limits assumed): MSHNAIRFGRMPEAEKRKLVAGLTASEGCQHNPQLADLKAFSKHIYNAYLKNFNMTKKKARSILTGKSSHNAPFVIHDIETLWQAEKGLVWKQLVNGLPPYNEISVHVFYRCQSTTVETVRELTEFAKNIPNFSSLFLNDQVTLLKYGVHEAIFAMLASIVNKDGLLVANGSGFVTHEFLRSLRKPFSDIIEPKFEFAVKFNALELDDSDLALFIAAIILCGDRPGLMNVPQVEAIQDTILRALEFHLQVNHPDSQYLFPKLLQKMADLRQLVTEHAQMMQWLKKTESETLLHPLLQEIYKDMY

[5] = system: PPARδ; settings: literature report; cited from earlier work
[6] = cited from earlier work
[7] = Test for evaluating cholesterol-lowering effect by using rhesus monkey; type: in vivo; settings: for Decrease in LDL-C (LDL-cholesterol level) / Decrease in TC (serum total cholesterol level): male rhesus monkeys, 30 mg/kg/day in feed, 2 weeks, compared with data before the administration; for Effect of lowering serum total cholesterol level, in particular LDL-cholesterol level (in words): rhesus monkeys, conclusion from Table 2
Experimental: A test for evaluating cholesterol-lowering effect was performed by using rhesus monkeys in accordance with a method described in Br. J. Pharmacol., 118, p.174-178, 1996.
i) Male rhesus monkeys weighing about 4.5 to 5 kg (Purchased from Hamri) were fed by giving twice a day 50 g/day of a solid feed, which had been prepared by adding 50 ml of water and vitamin C (5 mg/kg/day, manufactured by Sigma) to 50 g of Purina powdery feed (Code #5408, manufactured by Oriental Yeast) and solidifying the mixture, and about 100 g of banana.
ii) The monkeys having been accustomed to the control feed were divided into a control group having 4 animals and test groups each having 3 animals. The animals of the […] were fed with the control feed. On the other hand, the animals of one test group were fed with a composition feed containing 30 mg/kg/day of YM-16683, while those of the other test group were fed with a composition feed containing 30 mg/kg/day of the compound of Production Example 1, each twice a day. To avoid unfinished feeding, banana was given to the animals after taking 50 g of each feed.
iii) The groups were fed with respective feeds for 2 weeks. About 16 hours before the day before the final administration, the animals were fasted and the blood samples were collected from thigh. After measuring body weight, blood collection was performed twice, i.e., before and after the administration of the test compound. Each blood sample thus collected was heparinized and serum was separated therefrom. Next, the total cholesterol level (TC) and LDL-cholesterol level (LDL-C) were measured by the enzymatic method with the use of an automatic analyzer (Model 736-10, Hitachi) (Table 2).
Decrease was calculated by comparing the data before the administration.

[8] = cited from earlier work; for Decrease in serum cholesterol level: normal subjects
[9] = test compound 10^-4 M, HepG2 cells, 48 hours, luciferase activity corrected by β-galactosidase, DMSO control = 1.0

Compound: Cc1cccc(Nc2cc(Cl)nc(SCC(=O)O)n2)c1C [Wy 14,643, prinixic acid]
- fold induction at 100 µM [1]: 1.8
- PPARα activation / ligand activity (in words) [2]: ligand specific to PPARα

Compound: CCc1ccc(CCOc2ccc(CC3SC(=O)NC3=O)cc2)nc1 (centres unmarked) [Pioglitazone]
- fold induction at 100 µM ([3]; HepG2, 48 h): 1.5
- fold induction at 100 µM ([4]; HepG2, 48 h): 1.4

Compound: CCCCC[C@H](O)/C=C/[C@@H]1[C@H]2C/C(=C/CCCC(=O)O)O[C@H]2C[C@H]1O [PGI2, prostacyclin]
- PPARδ activation / ligand activity (in words) [5]: activates neither PPARα nor PPARδ
- PPARα activation / ligand activity (in words) [2]: activates neither PPARα nor PPARδ

Compound: CCC(C)(C)C(=O)O[C@H]1C[C@@H](C)C=C2C=C[C@H](C)[C@H](CC[C@@H]3C[C@@H](O)CC(=O)O3)[C@H]21 [simvastatin]
- Decrease in serum cholesterol level ([6]; patient with hyperlipemia, total serum cholesterol level of 220 mg/dl or above): about 20%
- Decrease in serum cholesterol level ([6]; phase I clinical test, normal subjects, about 1 week after the initiation of the administration): about 20%

Compound: CCOC(=O)C(C)(C)Oc1ccc(Cl)cc1 [Clofibrate]
- fold induction at 100 µM [1]: 0.9
- fold induction at 100 µM ([3]; HepG2, 48 h): 2.2
- fold induction at 100 µM ([4]; HepG2, 48 h): 1.3

Compound: CCCc1c(OCCCSc2nnc(SCC(=O)O)s2)ccc(C(C)=O)c1O [YM-16638]
- fold induction at 100 µM [1]: 2.5
- PPARγ-activating effect (in words) [1]: effect of activating PPARδ and PPARγ
- Decrease in LDL-C (LDL-cholesterol level) [7]: 14%
- Decrease in TC (serum total cholesterol level) [7]: 33%
- Effect of lowering serum total cholesterol level, in particular LDL-cholesterol level (in words) [7]: excellent effect of lowering serum total cholesterol level, in particular, LDL-cholesterol level
- fold induction at 100 µM [3, 9]: 1
- PPARδ-activating effect (in words) [4]: effect of activating PPARδ and PPARγ
- fold induction at 100 µM [4, 9]: 46.2
- Effect of lowering serum triglyceride level (in words) ([8]; humans): only a weak effect
- Decrease in serum cholesterol level ([8]; administration dose 60 mg): about 26%
- Decrease in serum cholesterol level ([8]; administration dose 120 mg): ~41%

Compound: CCCCC[C@H](O)/C=C/[C@@H]1[C@H]2C/C(=C/CCCC(=O)O)C[C@H]2C[C@H]1O [cPGI2, carbaprostacyclin]
- PPARδ activation / ligand activity (in words) [5]: has activities of both of PPARα and PPARδ ligands
- fold induction at 100 µM [1]: 1.6
- fold induction at 100 µM ([3]; HepG2, 48 h): 15.2
- fold induction at 100 µM ([4]; HepG2, 48 h): 34
- PPARα activation / ligand activity (in words) [2]: has activities of both of PPARα and PPARδ ligands

Compound: CCCc1c(OCCCOc2ccc(CC(=O)O)cc2)ccc(C(C)=O)c1O [Production Example 1, p-[3-(4-acetyl-3-hydroxy-2-propylphenoxy)propoxy]phenylacetic acid]
- fold induction at 100 µM [1]: 10.3
- PPARγ-activating effect (in words) [1]: effect of activating PPARδ and PPARγ
- Decrease in LDL-C (LDL-cholesterol level) [7]: 34%
- Decrease in TC (serum total cholesterol level) [7]: 29%
- Effect of lowering serum total cholesterol level, in particular LDL-cholesterol level (in words) [7]: excellent effect of lowering serum total cholesterol level, in particular, LDL-cholesterol level
- fold induction at 100 µM [3, 9]: 0.6
- PPARδ-activating effect (in words) [4]: effect of activating PPARδ and PPARγ
- fold induction at 100 µM [4, 9]: 83.5
